Measurements reported in publication PMC10724293, “New ruthenium-xanthoxylin complex eliminates colorectal cancer stem cells by targeting the heat shock protein 90 chaperone” (Cell Death & Disease, 2023).
pIC50: −log10 of the molar value.

Key:
Format in all cases: cell-based, human
A-375 = assay: Alamar blue cytotoxicity assay; settings: 72 h, read-out: IC50 and 95%CI
Experimental: (§1) The Alamar blue assay was used to determine cell viability as previously described. Cells were seeded into 96-well plates at a density of 7 × 10^3 cells per well for adherent cells or 3 × 10^4 cells per well for suspended cells. The drug was added to each well after 24 h of incubation for adherent cells or immediately for suspended cells and incubated for an additional 72 h. […] Each well received 100 µM resazurin (Sigma-Aldrich Co. St. Louis, MO, United States) four (for cell lines) or 24 (for primary culture) h before the end of the incubation. A SpectraMax 190 Microplate Reader (Molecular Devices, Sunnyvale, CA, USA) was used to measure absorbance at 570 and 600 nm.

A549 = assay: Alamar blue cytotoxicity assay; settings: 72 h, read-out: IC50 and 95%CI
Experimental: as §1

CAL 27 = assay: Alamar blue cytotoxicity assay; settings: 72 h, read-out: IC50 and 95%CI
Experimental: as §1

DU 145 = assay: Alamar blue cytotoxicity assay; settings: 72 h, read-out: IC50 and 95%CI
Experimental: as §1

H1299 = assay: Alamar blue cytotoxicity assay; settings: 72 h, read-out: IC50 and 95%CI
Experimental: as §1

HCT116 = assay: Alamar blue cytotoxicity assay; settings: 72 h, read-out: IC50 and 95%CI
Experimental: as §1

HL-60 = assay: Alamar blue cytotoxicity assay; settings: 72 h, read-out: IC50 and 95%CI
Experimental: as §1

HSC-3 = assay: Alamar blue cytotoxicity assay; settings: 72 h, read-out: IC50 and 95%CI
Experimental: as §1

HepG2 = assay: Alamar blue cytotoxicity assay; settings: 72 h, read-out: IC50 and 95%CI
Experimental: as §1

JUKART = assay: Alamar blue cytotoxicity assay; settings: 72 h, read-out: IC50 and 95%CI
Experimental: as §1

K-562 = assay: Alamar blue cytotoxicity assay; settings: 72 h, read-out: IC50 and 95%CI
Experimental: as §1

KG-1a = assay: Alamar blue cytotoxicity assay; settings: 72 h, read-out: IC50 and 95%CI
Experimental: as §1

MCF-7 = assay: Alamar blue cytotoxicity assay; settings: 72 h, read-out: IC50 and 95%CI
Experimental: as §1

MDA-MB-231 = assay: Alamar blue cytotoxicity assay; settings: 72 h, read-out: IC50 and 95%CI
Experimental: as §1

NB4 = assay: Alamar blue cytotoxicity assay; settings: 72 h, read-out: IC50 and 95%CI
Experimental: as §1

OVCAR-3 = assay: Alamar blue cytotoxicity assay; settings: 72 h, read-out: IC50 and 95%CI
Experimental: as §1

PANC-1 = assay: Alamar blue cytotoxicity assay; settings: 72 h, read-out: IC50 and 95%CI
Experimental: as §1

SCC-25 = assay: Alamar blue cytotoxicity assay; settings: 72 h, read-out: IC50 and 95%CI
Experimental: as §1

SCC-9 = assay: Alamar blue cytotoxicity assay; settings: 72 h, read-out: IC50 and 95%CI
Experimental: as §1

SCC4 = assay: Alamar blue cytotoxicity assay; settings: 72 h, read-out: IC50 and 95%CI
Experimental: as §1

THP-1 = assay: Alamar blue cytotoxicity assay; settings: 72 h, read-out: IC50 and 95%CI
Experimental: as §1

U-87 MG = assay: Alamar blue cytotoxicity assay; settings: 72 h, read-out: IC50 and 95%CI
Experimental: as §1

BJ = assay: Alamar blue cytotoxicity assay, noncancerous cells; settings: 72 h, read-out: IC50 and 95%CI
Experimental: as §1

PBMC = assay: Alamar blue cytotoxicity assay, noncancerous cells; settings: 72 h, read-out: IC50 and 95%CI
Experimental: as §1

[1] = test system: CR02 (colorectal carcinoma); assay: Alamar blue viability of primary cancer cells; settings: primary CRC (second listed); 25 μg/ml (RXC 31.3 μM, DOX 46 μM); 96 h
Experimental: as §1, with “nm. […]” for “nm.”

HCT116 cells [2] = assay: Colonosphere assay
Experimental: HCT116 cells, at densities of 1.25 × 10^5 cells/ml, were cultured in 24-well low adhesion plates (Corning, USA) in serum-free DMEM-F12 supplemented with 20 ng/ml bFGF (PeproTech, USA), 20 ng/ml EGF (PeproTech, USA), and B27 supplement (Invitrogen, Carlsbad, CA, USA). On the following day, the cells were subjected to drug concentrations of 20, 10, 5, 2.5, and 1.25 μM. The cells were photographed using an optical microscope after 0, 24, 48, and 72 h of incubation (Leica, DMI8). Furthermore, 10 µM RXC-treated cells were stained with acridine orange/PI and analyzed by confocal microscopy or stained with anti-CD133 antibody plus YO-PRO-1 and analyzed by flow cytometry.

HCT116 cells [3] = assay: Colony-forming assay; settings: 24, 48, 72 h treatment, 14 days culture
Experimental: To test clonogenic ability, 1000 cells were seeded in 6-well plates with 6 ml of complete medium and incubated with the drug for 24, 48, and 72 h. The medium was then changed to drug-free fresh medium and cultured for a total of 14 days. The cells were then fixed in methanol and stained with 0.5% crystal violet. The number of colonies with more than 50 cells was counted using an optical microscope (Nikon, TS100).

HCT116 cells [4] = assay: Trypan blue exclusion assay; settings: 2.5, 5 and 10 μM; 24, 48 and 72 h
Experimental: The trypan blue exclusion assay was used to quantify the number of viable cells. Briefly, 90 μl of the cell suspension plus 10 μl of trypan blue (0.4%) were mixed, and an aliquot was analyzed in a hemocytometer. The number of viable (unstained cells) and nonviable (trypan blue-stained cells) cells was counted using a light microscope.

## cis-[Ru(phen)2(xant)](PF6) [RXC]
A-375
  pIC50: 5.46
A549
  pIC50: 5.15
CAL 27
  pIC50: 5.27
DU 145
  pIC50: 5.38
H1299
  pIC50: 4.96
HCT116
  pIC50: 5.19
HL-60
  pIC50: 5.49
HSC-3
  pIC50: 5.32
HepG2
  pIC50: 5.20
JUKART
  pIC50: 5.39
K-562
  pIC50: 5.41
KG-1a
  pIC50: 5.64
MCF-7
  pIC50: 5.02
MDA-MB-231
  pIC50: 5.63
NB4
  pIC50: 5.47
OVCAR-3
  pIC50: 5.83
PANC-1
  pIC50: 4.93
SCC-25
  pIC50: 4.99
SCC-9
  pIC50: 5.55
SCC4
  pIC50: 5.72
THP-1
  pIC50: 5.55
U-87 MG
  pIC50: 5.15
BJ
  pIC50: 6.12
PBMC
  pIC50: 5.31
[1]
  reduced cell viability: 37.4%
HCT116 cells [2]; 10 μM, 24 h, control 47.8%
  HCT116 CD133-positive cells in colonospheres: 19.5%
HCT116 cells [2]; 1.25-20 μM, 24, 48, 72 h
  colonosphere formation: reduced colonosphere formation
HCT116 cells [3]
  clonogenic survival: inhibit the clonogenic survival
HCT116 cells [4]
  number of viable cells: reduced the number of viable cells
